20 compounds from patent US10112937B2, “P2X7 modulators and methods of use” (Janssen Pharmaceutica NV, priority 2013, dated 2018) can be followed below.

The experiment addresses human P2X7 (Homo sapiens (Human), UniProt Q99572). Put plainly: P2X7 antagonism in human PBMCs (IL-1β release after LPS + Bz-ATP, ELISA). Format: cell-based.
Setting [1] is: human PBMCs, test compound 10 μM.
Setting [2] is: 10 μM test compound, human PBMCs, LPS + Bz-ATP.

Structures are written as SMILES.

Chain of human P2X7 (Q99572 whole entry): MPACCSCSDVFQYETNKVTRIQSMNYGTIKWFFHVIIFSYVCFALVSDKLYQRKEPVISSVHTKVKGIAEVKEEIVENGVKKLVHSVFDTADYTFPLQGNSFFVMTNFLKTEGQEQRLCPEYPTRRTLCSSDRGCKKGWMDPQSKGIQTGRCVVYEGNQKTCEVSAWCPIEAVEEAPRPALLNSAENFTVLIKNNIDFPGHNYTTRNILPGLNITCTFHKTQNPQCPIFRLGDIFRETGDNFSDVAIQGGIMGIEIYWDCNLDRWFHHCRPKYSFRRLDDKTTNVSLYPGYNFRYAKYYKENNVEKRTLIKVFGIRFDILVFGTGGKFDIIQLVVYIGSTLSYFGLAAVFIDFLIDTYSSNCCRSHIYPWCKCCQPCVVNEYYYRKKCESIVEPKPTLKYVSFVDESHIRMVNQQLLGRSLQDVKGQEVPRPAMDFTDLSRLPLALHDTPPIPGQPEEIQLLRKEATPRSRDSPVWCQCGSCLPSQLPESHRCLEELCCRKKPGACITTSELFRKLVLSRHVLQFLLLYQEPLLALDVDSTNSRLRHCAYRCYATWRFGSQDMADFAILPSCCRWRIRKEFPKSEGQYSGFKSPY
Method: P2X7 Antagonism in Human Peripheral Blood Mononuclear Cells (PBMCs) and Human Whole Blood.
Human blood was collected using a blood donor program. PBMCs were isolated from blood using a Ficoll density gradient technique. Briefly, blood was laid on Ficoll solution and centrifuged at RT for 20 minutes at 2000 rpm. The buffy layer (between red blood cells and plasma) was carefully collected by aspiration, washed with PBS and centrifuged again at 1500 rpm for 15 minutes. The resulting cell pellet was washed and plated on 96 well-plates for experiments. For the Human Whole Blood experiments, 150 μl of human blood was platted on 96 well-plates. Lipopolysaccharide (LPS) (30 ng/ml) was added to each well and incubated for 1 hour. Test compounds were then added and incubated for 30 minutes. The P2X7 agonist, 2′(3′)-O-(4-benzoylbenzoyl) adenosine 5′ triphosphate (Bz-ATP) was then added at a final concentration of 0.5 mM (PBMC) or 1 mM (blood). Cells were incubated for an additional 1.5 hours. At that point, supernatant was collected and stored for IL-1β assay using manufacturer's protocol for enzyme-linked immunosorbent assay (ELISA). Data was expressed as percent control, where control is defined as the difference in IL-1β release in LPS+Bz-ATP samples and LPS only samples. Data was plotted as response (% control) versus concentration to generate IC50 values. […] Data are analyzed and graphed on Graphpad Prism 5. For analysis, each concentration point is averaged from triplicate values and the averaged values are plotted on Graphpad Prism.

Consider `CC1CN(C(=O)c2cccc(C(F)(F)F)c2Cl)Cc2nnn(-c3ccc(F)cc3)c21` (stereo not drawn) [Example 246, (2-Chloro-3-(trifluoromethyl)phenyl)(1-(4-fluorophenyl)-7-methyl-6,7-dihydro-1H-[1,2,3]triazolo[4,5-c]pyridin-5(4H)-yl)methanone], for which the “PBMC 10 μM (% control)” value under setting [1] was −3.1 % control.

Take `CCn1ccc(-n2nnc3c2C[C@H](C)N(C(=O)c2cccc(C(F)(F)F)c2Cl)C3)n1` [Example 404, (S)-(2-chloro-3-(trifluoromethyl)phenyl)(1-(1-ethyl-1H-pyrazol-3-yl)-6-methyl-6,7-dihydro-1H-[1,2,3]triazolo[4,5-c]pyridin-5(4H)-yl)methanone]: under setting [2], the “PBMC 10 μM (% control)” value is −3.1 % control.

Regarding `CC1Cc2c(nnn2-c2ccc(F)cc2)C(C)N1C(=O)c1cccc(Cl)c1Cl` (stereo not drawn) [Example 242, (2,3-Dichlorophenyl)(1-(4-fluorophenyl)-4,6-dimethyl-6,7-dihydro-1H-[1,2,3]triazolo[4,5-c]pyridin-5(4H)-yl)methanone], the “PBMC 10 μM (% control)” value under setting [1] was −3.4 % control.

`CC1c2nnn(-c3ccc(F)cc3)c2C=CN1C(=O)c1cccc(C(F)(F)F)c1Cl` (stereo not drawn) [Example 81, 5-{[2-Chloro-3-(trifluoromethyl)phenyl]carbonyl}-1-(4-fluorophenyl)-4-methyl-4,5-dihydro-1H-[1,2,3]triazolo[4,5-c]pyridine]: the “PBMC 10 μM (% control)” value under setting [1] is on record as 5.9 % control.

In the case of `CCn1ccc(-n2nnc3c2C[C@H](C)N(C(=O)c2ccnc(C(F)(F)F)c2F)C3)n1` [Example 408, (S)-(1-(1-ethyl-1H-pyrazol-3-yl)-6-methyl-6,7-dihydro-1H-[1,2,3]triazolo[4,5-c]pyridin-5(4H)-yl)(3-fluoro-2-(trifluoromethyl)pyridin-4-yl)methanone], the “PBMC 10 μM (% control)” value under setting [2] was found to be 53.6 % control.

For `CC1Cc2c(nnn2-c2cc(F)ccn2)CN1C(=O)c1cccc(Cl)c1Cl` (stereo not drawn) [Example 173, 5-[(2,3-Dichlorophenyl)carbonyl]-1-(4-fluoropyridin-2-yl)-6-methyl-4,5,6,7-tetrahydro-1H-[1,2,3]triazolo[4,5-c]pyridine], the “PBMC 10 μM (% control)” value under setting [1] was determined as 8.8 % control.

In the case of `Cc1ccnc(-n2nnc3c2CCN(C(=O)c2ccnc(C(F)(F)F)c2Cl)[C@@H]3C)c1` (single isomer, unassigned) [Example 359, (R*)-(3-chloro-2-(trifluoromethyl)pyridin-4-yl)(4-methyl-1-(4-methylpyridin-2-yl)-6,7-dihydro-1H-[1,2,3]triazolo[4,5-c]pyridin-5(4H)-yl)methanone], the “PBMC 10 μM (% control)” value under setting [1] is −8.2 % control.

`CC1Cc2c(nnn2-c2ccccc2)C(C)N1C(=O)c1cccc(C(F)(F)F)c1Cl` (stereo not drawn) [Example 240, (2-Chloro-3-(trifluoromethyl)phenyl)(4,6-dimethyl-1-phenyl-6,7-dihydro-1H-[1,2,3]triazolo[4,5-c]pyridin-5(4H)-yl)methanone]: the “PBMC 10 μM (% control)” value under setting [1] was −8.9 % control.

As to `C[C@@H]1Cc2c(nnn2-c2ccn[nH]2)[C@H](C)N1C(=O)c1cccc(C(F)(F)F)c1Cl` [Example 309, (2-chloro-3-(trifluoromethyl)phenyl)((4S,6R)-4,6-dimethyl-1-(1H-pyrazol-5-yl)-6,7-dihydro-1H-[1,2,3]triazolo[4,5-c]pyridin-5(4H)-yl)methanone], the “PBMC 10 μM (% control)” value under setting [1] was determined as 1.4 % control.

On to `C[C@H]1Cc2c(nnn2-c2ncccc2F)CN1C(=O)c1cccc(Cl)c1Cl` (single isomer, unassigned) [Example 166, (6S*)-5-[(2,3-Dichlorophenyl)carbonyl]-1-(3-fluoropyridin-2-yl)-6-methyl-4,5,6,7-tetrahydro-1H-[1,2,3]triazolo[4,5-c]pyridine], for which the “PBMC 10 μM (% control)” value under setting [1] is listed as 0.6 % control.

With `CC1c2nnn(-c3ccc(F)cc3)c2CCN1C(=O)c1cccc(C(F)(F)F)c1Cl` (stereo not drawn) [Example 83, 5-{[2-Chloro-3-(trifluoromethyl)phenyl]carbonyl}-1-(4-fluorophenyl)-4-methyl-4,5,6,7-tetrahydro-1H-[1,2,3]triazolo[4,5-c]pyridine], under setting [1], the “PBMC 10 μM (% control)” value is 4.5 % control.

As for `O=C(c1cccc(C(F)(F)F)c1F)N1CCc2c(nnn2-c2cnccn2)C1` [Example 69, 5-{[2-Fluoro-3-(trifluoromethyl)phenyl]carbonyl}-1-pyrazin-2-yl-4,5,6,7-tetrahydro-1H-[1,2,3]triazolo[4,5-c]pyridine], the “PBMC 10 μM (% control)” value under setting [1] was found to be 6.8 % control.

Take `CCc1cccnc1-n1nnc2c1CCN(C(=O)c1cccc(C(F)(F)F)c1Cl)C2C` (stereo not drawn) [Example 254, (2-Chloro-3-(trifluoromethyl)phenyl)(1-(3-ethylpyridin-2-yl)-4-methyl-6,7-dihydro-1H-[1,2,3]triazolo[4,5-c]pyridin-5(4H)-yl)methanone]: under setting [1], the “PBMC 10 μM (% control)” value worked out at 0.9 % control.

As for `Cc1c(C(=O)N2Cc3nnn(-c4ncc(F)cn4)c3C[C@H]2C)ccnc1C(F)(F)F` (single isomer, unassigned) [Example 187, (S*)-(1-(5-fluoropyrimidin-2-yl)-6-methyl-6,7-dihydro-1H-[1,2,3]triazolo[4,5-c]pyridin-5(4H)-yl)(3-methyl-2-(trifluoromethyl)pyridin-4-yl)methanone], the “PBMC 10 μM (% control)” value is −0.6 % control under setting [1] and −0.6 % control (test compound 10 μM, LPS 30 ng/ml + 0.5 mM Bz-ATP).

For `CC1c2nnn(-c3cnccn3)c2C=CN1C(=O)c1cccc(C(F)(F)F)c1Cl` (stereo not drawn) [Example 72, 5-{[2-Chloro-3-(trifluoromethyl)phenyl]carbonyl}-4-methyl-1-pyrazin-2-yl-4,5-dihydro-1H-[1,2,3]triazolo[4,5-c]pyridine], the “PBMC 1 μM (% control)” value (human PBMCs, test compound 1 μM) is listed as −5.7 % control.

Consider `CCc1ccnc(-n2nnc3c2CCN(C(=O)c2cccc(C(F)(F)F)c2Cl)[C@@H]3C)n1` (single isomer, unassigned) [Example 294, (R*)-(2-chloro-3-(trifluoromethyl)phenyl)(1-(4-ethylpyrimidin-2-yl)-4-methyl-6,7-dihydro-1H-[1,2,3]triazolo[4,5-c]pyridin-5(4H)-yl)methanone], for which, under setting [1], the “PBMC 10 μM (% control)” value was −8.1 % control.

Regarding `Cc1nccc(-n2nnc3c2CCN(C(=O)c2ccnc(C(F)(F)F)c2F)C3C)n1` (stereo not drawn) [Example 401, (3-fluoro-2-(trifluoromethyl)pyridin-4-yl)(4-methyl-1-(2-methylpyrimidin-4-yl)-6,7-dihydro-1H-[1,2,3]triazolo[4,5-c]pyridin-5(4H)-yl)methanone], the “PBMC 10 μM (% control)” value under setting [1] came out at 82.0 % control.

Take `O=C(c1cccc(C(F)(F)F)c1Cl)N1CCc2c(-c3cccnc3)n[nH]c2C1` [Example 96, 6-{[2-Chloro-3-(trifluoromethyl)phenyl]carbonyl}-3-pyridin-3-yl-4,5,6,7-tetrahydro-2H-pyrazolo[3,4-c]pyridine]: the “PBMC 10 μM (% control)” value under setting [1] is 3.6 % control.

Regarding `C[C@H]1Cc2c(nnn2-c2ccc(F)cc2)[C@H](C)N1C(=O)c1cccc(C(F)(F)F)c1Cl` [Example 285, (2-chloro-3-(trifluoromethyl)phenyl)((4S,6S)-1-(4-fluorophenyl)-4,6-dimethyl-6,7-dihydro-1H-[1,2,3]triazolo[4,5-c]pyridin-5(4H)-yl)methanone], under setting [1], the “PBMC 10 μM (% control)” value is −2.6 % control.

For `CC1Cc2c(nnn2-c2ncc(F)cn2)CN1C(=O)c1cccc(Cl)c1Cl` (stereo not drawn) [Example 203, 5-[(2,3-Dichlorophenyl)carbonyl]-1-(5-fluoropyrimidin-2-yl)-6-methyl-4,5,6,7-tetrahydro-1H-[1,2,3]triazolo[4,5-c]pyridine], under setting [1], the “PBMC 10 μM (% control)” value is reported as 0.6 % control.
